# Experimental data from US11622970B2, “BCL-2 inhibitors and their use as pharmaceuticals” (PRELUDE THERAPEUTICS INCORPORATED, priority 2020, dated 2023).
# Target: BCL-2 recombinant protein (Homo sapiens, UniProt P10415)
# Test: Cell free Bcl-2:Bak affinity assay (Bcl-2 Bak), HTRF competition of FAM-Bak peptide
# Type: binding
# Conditions: 1 μM compound, 4 nM BCL-2 recombinant protein, 100 nM FAM-Bak, read-out: potency (% inhibition at 1 μM)
# Protocol: Biological Assays: Cell Free Bcl-2:Bak Affinity Assay (Bcl-2 Bak)
# The assay is based on the competition of fluorescently labeled peptide binding to BCL-2 and the binding is monitored by HTRF signals between anti-GST-Tb and FAM-peptide using GST-Tag BCL proteins. Testing compounds were dissolved in DMSO at 10 mM and tested in 10-concentration IC50 mode. The compounds of interest in DMSO were added in 3-fold serial dilution to each well containing 4 nM of BCL-2 recombinant protein, 20 mM K Phosphate, pH 7.5, 50 mM NaCl, 1 mM EDTA, 0.005% Triton X-100, by using acoustic technology (Labcyte echo 550), After 10 minutes incubation at room temperature, 100 nM of FAM-Bak was added and incubated for another 10 minutes before addition of Anti-GST-Tb. The plate was then sealed and further incubated at room temperature for 60 minutes in the dark before reading. Percentage of inhibition was calculated by % inhibition=100×(FDMSO−F)/(FDMSO−FPC), in which FDMSO is DMSO control and FPC is a positive control. IC50 values were determined from dose-response curve by fitting the percent inhibition against compound concentration using GraphPad Prism software.
# Sequence of BCL-2 recombinant protein (P10415 whole entry): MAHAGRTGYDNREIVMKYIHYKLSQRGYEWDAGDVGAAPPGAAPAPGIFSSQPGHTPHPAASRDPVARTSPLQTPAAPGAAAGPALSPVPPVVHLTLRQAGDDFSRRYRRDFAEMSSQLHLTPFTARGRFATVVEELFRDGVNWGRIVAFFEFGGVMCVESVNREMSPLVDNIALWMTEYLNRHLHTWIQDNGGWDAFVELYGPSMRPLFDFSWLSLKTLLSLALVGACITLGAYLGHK
row,Structure (SMILES),inhibition at 1 µM [%]
1,"COCc1cccc(C(=O)NS(=O)(=O)c2ccc(N3CCN(CC4=C(c5ccc(Cl)cc5)CC(C)(C)CC4)CC3)cc2)c1 [Example 18, N-([4-[4-[[2-(4-chlorophenyl)-4,4-dimethylcyclohexen-1-yl]methyl]piperazin-1-yl]phenyl]sulfonyl)-3-(methoxymethyl)benzamide]",50 to 90
2,"CC1(C)CCC(CN2CCN(c3ccc(S(=O)(=O)NC(=O)C4CC=CCC4)cc3)CC2)=C(c2ccc(Cl)cc2)C1 (stereo not drawn) [Example 28, N-([4-[4-[[2-(4-chlorophenyl)-4,4-dimethylcyclohexen-1-yl]methyl]piperazin-1-yl]phenyl]sulfonyl)cyclohex-3-ene-1-carboxamide]",< 50
3,"CC1(C)CCC(CN2CCN(c3ccc(S(=O)(=O)NC(=O)c4ccc(F)c(Cl)n4)cc3)CC2)=C(c2ccc(Cl)cc2)C1 [Example 1, 6-Chloro-N-[4-[4-[[2-(4-chlorophenyl)-4,4-dimethylcyclohexen-1-yl]methyl]piperazin-1-yl]phenyl]sulfonyl-5-fluoropyridine-2-carboxamide]",50 to 90
4,"Cc1c(C(=O)NS(=O)(=O)c2ccc(N3CCN(CC4=C(c5ccc(Cl)cc5)CC(C)(C)CC4)CC3)cc2)nnn1Cc1ccccc1 [Example 4, 1-benzyl-N-[4-[4-[[2-(4-chlorophenyl)-4,4-dimethylcyclohexen-1-yl]methyl]piperazin-1-yl]phenyl]sulfonyl-5-methyl-1H-1,2,3-triazole-4-carboxamide]",50 to 90
5,"CC1(C)CCC(CN2CCN(c3ccc(S(=O)(=O)NC(=O)c4cccc(Cl)c4)cc3)CC2)=C(c2ccc(Cl)cc2)C1 [Example 15, 3-chloro-N-([4-[4-[[2-(4-chlorophenyl)-4,4-dimethylcyclohexen-1-yl]methyl]piperazin-1-yl]phenyl]sulfonyl)benzamide]",50 to 90
6,"CC1(C)CCC(CN2CCN(c3ccc(S(=O)(=O)NC(=O)c4ccc(OCc5ccccc5)c([N+](=O)[O-])c4)cc3)CC2)=C(c2ccc(Cl)cc2)C1 [Example 36, 4-(benzyloxy)-N-([4-[4-[[2-(4-chlorophenyl)-4,4-dimethylcyclohexen-1-yl]methyl]piperazin-1-yl]phenyl]sulfonyl)-3-nitrobenzamide]",50 to 90
7,"Cc1onc(C(=O)NS(=O)(=O)c2ccc(N3CCN(CC4=C(c5ccc(Cl)cc5)CC(C)(C)CC4)CC3)cc2)c1C [Example 17, N-([4-[4-[[2-(4-chlorophenyl)-4,4-dimethylcyclohexen-1-yl]methyl]piperazin-1-yl]phenyl]sulfonyl)-4,5-dimethylisoxazole-3-carboxamide]",50 to 90
8,"CC1(C)CCC(CN2CCN(c3ccc(S(=O)(=O)NC(=O)c4ccc(F)c(OCc5ccccc5)c4)cc3)CC2)=C(c2ccc(Cl)cc2)C1 [Example 53, 3-(benzyloxy)-N-[4-[4-[[2-(4-chlorophenyl)-4,4-dimethylcyclohexen-1-yl]methyl]piperazin-1-yl]phenyl]sulfonyl-4-fluorobenzamide]",50 to 90
9,"CC1(C)CCC(CN2CCN(c3ccc(S(=O)(=O)NC(=O)c4ccc(F)c(-c5cnc6c(c5)CC(=O)N6)n4)cc3)CC2)=C(c2ccc(Cl)cc2)C1 [Example 47, N-[4-[4-[[2-(4-chlorophenyl)-4,4-dimethylcyclohexen-1-yl]methyl]piperazin-1-yl]phenyl]sulfonyl-5-fluoro-6-(2-oxo-2,3-dihydro-1H-pyrrolo[2,3-b]pyridin-5-yl)pyridine-2-carboxamide]",50 to 90
10,"Cc1ccc(CC(=O)NS(=O)(=O)c2ccc(N3CCN(CC4=C(c5ccc(Cl)cc5)CC(C)(C)CC4)CC3)cc2)cn1 [Example 26, N-([4-[4-[[2-(4-chlorophenyl)-4,4-dimethylcyclohexen-1-yl]methyl]piperazin-1-yl]phenyl]sulfonyl)-2-(6-methylpyridin-3-yl)acetamide]",< 50

# Same assay, conditions: 10-concentration IC50 mode, 4 nM BCL-2 recombinant protein, 100 nM FAM-Bak, read-out: potency (IC50)
row,Structure (SMILES),IC50 [µM]
1,"CC1(C)CCC(CN2CCN(c3ccc(S(=O)(=O)NC(=O)c4ccc([N+](=O)[O-])c(Cl)n4)c(Oc4cnc5[nH]ccc5c4)c3)CC2)=C(c2ccc(Cl)cc2)C1 [Example 72, 6-Chloro-N-[4-[4-[[2-(4-chlorophenyl)-4,4-dimethylcyclohexen-1-yl]methyl]piperazin-1-yl]-2-(1H-pyrrolo[2,3-b]pyridin-5-yloxy)phenyl]sulfonyl-5-nitropyridine-2-carboxamide]",0.01 to 0.1
2,"CCNc1c([N+](=O)[O-])cc(C(=O)NS(=O)(=O)c2ccc(N3CCN(CC4=C(c5ccc(Cl)cc5)CC(C)(C)CC4)CC3)cc2Oc2cnc3[nH]ccc3c2)c(Cl)c1C [Example 99, 2-chloro-N-[4-[4-[[2-(4-chlorophenyl)-4,4-dimethylcyclohexen-1-yl]methyl]piperazin-1-yl]-2-(1H-pyrrolo[2,3-b]pyridin-5-yloxy)phenyl]sulfonyl-4-(ethylamino)-3-methyl-5-nitrobenzamide]",0.01 to 0.1
3,"CC1(C)CCC(CN2CCN(c3ccc(S(=O)(=O)NC(=O)c4ccc([N+](=O)[O-])c(COc5ccc(Cl)cc5)c4)cc3)CC2)=C(c2ccc(Cl)cc2)C1 [Example 38, N-([4-[4-[[2-(4-chlorophenyl)-4,4-dimethylcyclohexen-1-yl]methyl]piperazin-1-yl]phenyl]sulfonyl)-3-((4-chlorophenoxy)methyl)-4-nitrobenzamide]",0.01 to 0.1
4,"Cc1c(Cl)c(C(=O)NS(=O)(=O)c2ccc(N3CCN(CC4=C(c5ccc(Cl)cc5)CC(C)(C)CC4)CC3)cc2Oc2cnc3[nH]ccc3c2)cc([N+](=O)[O-])c1OCC1CCOCC1 [Example 81, 2-Chloro-N-[4-[4-[[2-(4-chlorophenyl)-4,4-dimethylcyclohexen-1-yl]methyl]piperazin-1-yl]-2-(1H-pyrrolo[2,3-b]pyridin-5-yloxy)phenyl]sulfonyl-3-methyl-5-nitro-4-(oxan-4-ylmethoxy)benzamide]",< 0.01
5,"Cc1nc(C(=O)NS(=O)(=O)c2ccc(N3CCN(CC4=C(c5ccc(Cl)cc5)CC(C)(C)CC4)CC3)cc2Oc2cnc3[nH]ccc3c2)ccc1Cl [Example 73, N-[4-[4-[[2-(4-chlorophenyl)-4,4-dimethylcyclohexen-1-yl]methyl]piperazin-1-yl]-2-(1H-pyrrolo[2,3-b]pyridin-5-yloxy)phenyl]sulfonyl-5-chloro-6-methylpyridine-2-carboxamide]",0.01 to 0.1
6,"Cc1nn(C)c(C(=O)NS(=O)(=O)c2ccc(N3CCN(CC4=C(c5ccc(Cl)cc5)CC(C)(C)CC4)CC3)cc2Oc2cnc3[nH]ccc3c2)c1C [Example 78, N-[4-[4-[[2-(4-chlorophenyl)-4,4-dimethylcyclohexen-1-yl]methyl]piperazin-1-yl]-2-(1H-pyrrolo[2,3-b]pyridin-5-yloxy)phenyl]sulfonyl-2,4,5-trimethylpyrazole-3-carboxamide]",0.1 to 1
7,"Cc1nc(C(=O)NS(=O)(=O)c2ccc(N3CCN(CC4=C(c5ccc(Cl)cc5)CC(C)(C)CC4)CC3)cc2Oc2cnc3[nH]ccc3c2)ccc1F [Example 69, N-[4-[4-[[2-(4-chlorophenyl)-4,4-dimethylcyclohexen-1-yl]methyl]piperazin-1-yl]-2-(1H-pyrrolo[2,3-b]pyridin-5-yloxy)phenyl]sulfonyl-5-fluoro-6-methylpyridine-2-carboxamide]",0.01 to 0.1
8,"Cc1cc([N+](=O)[O-])cc(C(=O)NS(=O)(=O)c2ccc(C3=CCN(CC4=C(c5ccc(Cl)cc5)CC(C)(C)CC4)CC3)cc2F)n1 [Example 65, N-[4-[1-[[2-(4-Chlorophenyl)-4,4-dimethylcyclohexen-1-yl]methyl]-3,6-dihydro-2H-pyridin-4-yl]-2-fluorophenyl]sulfonyl-6-methyl-4-nitropyridine-2-carboxamide]",< 0.01
